Patent US7285564B2, “Substituted 4-amino-1-(pyridylmethyl)piperidine and related compounds” (Theravance, Inc., priority 2002, dated 2007)

Tests used:
hM2 receptor = target: T1, hM2 receptor (Homo sapiens, UniProt P08172); test: Blockade of agonist-mediated inhibition of cAMP accumulation; format: cell-based; conditions: CHO-K1 cells expressing the hM2 receptor; read-out: Ki for blockade of oxotremorine-inhibition of forskolin-mediated cAMP accumulation
T1 construct: expressed in transfected cells; membranes prepared
T1 sequence (P08172 1-466): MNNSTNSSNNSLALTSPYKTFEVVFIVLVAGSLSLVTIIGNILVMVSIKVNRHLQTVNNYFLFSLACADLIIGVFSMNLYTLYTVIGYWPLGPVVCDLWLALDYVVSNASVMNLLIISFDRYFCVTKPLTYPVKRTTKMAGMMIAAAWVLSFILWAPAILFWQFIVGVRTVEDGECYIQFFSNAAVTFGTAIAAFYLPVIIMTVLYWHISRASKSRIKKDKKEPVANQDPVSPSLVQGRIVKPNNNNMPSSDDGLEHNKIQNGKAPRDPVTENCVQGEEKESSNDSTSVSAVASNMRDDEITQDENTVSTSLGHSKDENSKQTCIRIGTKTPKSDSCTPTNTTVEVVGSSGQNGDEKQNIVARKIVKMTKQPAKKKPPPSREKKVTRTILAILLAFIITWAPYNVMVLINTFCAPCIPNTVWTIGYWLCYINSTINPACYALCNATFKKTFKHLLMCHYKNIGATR
Protocol: In this assay, the functional potency of a test compound was determined by measuring the ability of the test compound to block oxotremorine-inhibition of forskolin-mediated cAMP accumulation in CHO-K 1 cells expressing the hM2 receptor.
cAMP assays were performed in a radioimmunoassay format using the Flashplate Adenylyl Cyclase Activation Assay System with ^125]-cAMP (NEN SMP004B, PerkinElmer Life Sciences Inc., Boston, Mass.), according to the manufacturer's instructions.
CHO-K1 cells stably expressing cloned human M2 muscarinic receptors were grown to near confluency in a 5% CO2, 37° C. incubator in medium consisting of HAM's F-12 supplemented with 10% FBS (Fetal Bovine Serum) and 250 μg/mL Geneticin. […] The cell pellet was then re-suspended in 10 mL dPBS, and the cells were counted with a Coulter Z1 Dual Particle Counter (Beckman Coulter, Fullerton, Calif.). […]
Reactions were incubated for 10 minutes at 37° C. and stopped by addition of 100 μL ice-cold detection buffer. Plates were sealed, incubated overnight at room temperature and counted the next morning on a PerkinElmer TopCount liquid scintillation counter (PerkinElmer Inc., Wellesley, Mass.). The amount of cAMP produced (pmol/well) was calculated based on the counts observed for the samples and cAMP standards, as described in the manufacturer's user manual. […]

[1] = test system: oxotremorine-induced salivation; test: In vivo rat salivation assay
Protocol: Female Sprague-Dawley rats weighing 200 to 300 g were anesthetized with urethane (1.5 g/kg, s.c., Sigma, St. Louis, Mo.), with a supplement of 0.25 g/kg, s.c. urethane as needed. Urethane was administered at a concentration of 0.25 g/mL.
Rats were placed on a heated blanket on their dorsal side in an inclined position (20° angle) position (head down). A swab was placed in the rat's mouth. The test compound or vehicle was administered intravenously via the tail vein. After 5 min., oxotremorine (1.0 mg/kg) was administered subcutaneously. The swab was discarded and
Replaced by a pre-weighed swab. Saliva was then collected for 10 min. and then the swab was removed and re-weighed to determine the output of saliva. Dose-response curves were fitted with a four parameter logistic equation to obtain estimates of ID50 (dose required to produce 50% of the maximal response).
By comparing the ID50 values determined in the rat bladder assay and rat salivation assay, the in vivo bladder/salivation selectivity ratio was calculated for the compounds tested.

Ki (hM2 receptor): < 1 nM
Structure (SMILES): COc1ccncc1CN1CCC(N(CCCCCCCN2CC[C@@H](C(C(N)=O)(c3ccccc3)c3ccccc3)C2)C(C)C)CC1 [Example 1]
ID50 (salivation) ([1]; intravenous, anesthetized female Sprague-Dawley rats, oxotremorine 1.0 mg/kg s.c.): greater than or equal to 0.9 mg/kg
ID50 bladder/salivation selectivity ratio ([1]; rat bladder assay vs rat salivation assay): greater than 20
